Results on seven compounds are retold here after patent publication US20060188566A1, “Nanoparticulate formulations of docetaxel and analogues thereof” (Elan Pharma International Limited, priority 2005, published 2006).

The subject of data set [1] is microtubules. The conditions noted are these: compared with docetaxel; cited from earlier work.
A short description of data set [2]: Particle size of unmilled (conventional, non-nanoparticulate) docetaxel. The class given is physicochemical. The source says: Unmilled trihydrate docetaxel has a mean particle size of 61,610 nm, with a D50 of 51,060 nm and a D90 of 119,690 nm.
The subject of data set [3] is plasma proteins, primarily albumin, α1-acid glycoproteins, and lipoproteins. The conditions noted are these: in vitro; cited from earlier work.
For data set [4], the system named is COX-2 expression in human monocytes. The conditions noted are these: human monocytes / human cells; cited from earlier work.
For data set [5] the following is noted: cited from earlier work.
For data set [6] the following is noted: cited from earlier work. The source holds these as a separate data set.
Data set [7] concerns mice. The conditions noted are these: mouse, in vivo, iv.
Procedure: The purpose of this experiment was to determine the maximum tolerated dose of a nanoparticulate docetaxel formulation.
To evaluate and characterize the acute toxicity of nanoparticulate docetaxel formulations, two nanoparticulate dispersions were utilized.
Both nanoparticulate docetaxel formulations were administered intravenously at various doses to mice.
The commercially available non-nanoparticulate docetaxel product, TAXOTERE®, was also tested in parallel with the nanoparticulate docetaxel formulations.
For data set [8] the following is noted: phase I trial; cited from earlier work.
The subject of data set [9] is COX-2 expression in murine cells. As to conditions: cited from earlier work.
[10] abbreviates: IV administration of a 100-mg/m^2 dose, SD=0.8.
Setting [11] is: intravenous doses of 70 mg/m^2 to 115 mg/m^2, 3-compartment model, TAXOTERE®.

In the case of `CC(=O)OC12COC1CC(O)C1(C)C(=O)C(O)C3=C(C)C(OC(=O)C(O)C(NC(=O)OC(C)(C)C)c4ccccc4)CC(O)(C(OC(=O)C4CCCCC4)C21)C3(C)C` (stereo not drawn) [2-(hexahydro)docetaxel], in [1], the “inhibitory activity for microtubule disassembly” value was “strong inhibitory activity for microtubule disassembly equivalent to docetaxel”.

Consider `CC(=O)OC12COC1CC(O)C1(C)C(=O)C(O)C3=C(C)C(OC(=O)C(O)C(NC(=O)OC(C)(C)C)C4CCCCC4)CC(O)(C(OC(=O)c4ccccc4)C21)C3(C)C` (stereo not drawn) [3′-dephenyl-3′-cyclohexyldocetaxel], for which, in [1], the “inhibitory activity for microtubule disassembly” value is “strong inhibitory activity for microtubule disassembly equivalent to docetaxel”.

On to `CC(=O)O[C@@]12CO[C@@H]1C[C@H](O)[C@@]1(C)C(=O)[C@H](O)C3=C(C)[C@@H](OC(=O)[C@H](O)[C@@H](NC(=O)OC(C)(C)C)c4ccccc4)C[C@@](O)([C@@H](OC(=O)c4ccccc4)[C@H]21)C3(C)C` [Unmilled trihydrate docetaxel, docetaxel], for which, in data set [2], the D50 is 51,060 nm, the D90 is given as 119,690 nm and the mean particle size is on record as 61,610 nm.

For the compound `CC(=O)O[C@@]12CO[C@@H]1C[C@H](O)[C@@]1(C)C(=O)[C@H](O)C3=C(C)[C@@H](OC(=O)[C@H](O)[C@@H](NC(=O)OC(C)(C)C)c4ccccc4)C[C@@](O)([C@@H](OC(=O)c4ccccc4)[C@H]21)C3(C)C` [docetaxel, (2R, 3S)-N-carboxy-3-phenylisoserine, N-tert-butyl ester, 13-ester with 5β-20-epoxy-1, 2α, 4, 7β, 10β, 13α-hexahydroxytax-11-en-9-one 4-acetate 2-benzoate, trihydrate], the “bound to plasma proteins” value in data set [3] is “approximately 94%”. Besides, the COX-2 expression induction entry in data set [4] is “induces COX-2 expression only in human monocytes”. In addition, the “solubility in water (in words)” value in [5] is “practically insoluble in water”. In addition, in data set [6] (setting [10]), the AUC was 4600 ng·h/mL and the “mean peak plasma level” value was 3.7 µg/mL. Further, the “steady-state volume of distribution (mean)” value in data set [6] (cancer patients, IV) is recorded as 113 L. In addition, in [6] (setting [11]), the “mean population α half-life” value is 4 min, the “mean population β half-life” value is 36 min and the “mean population γ half-life” value was 666 min.

For `CC(=O)O[C@@]12CO[C@@H]1C[C@H](O)[C@@]1(C)C(=O)[C@H](O)C3=C(C)[C@@H](OC(=O)[C@H](O)[C@@H](NC(=O)OC(C)(C)C)c4ccccc4)C[C@@](O)([C@@H](OC(=O)c4ccccc4)[C@H]21)C3(C)C` [unmilled docetaxel (anhydrous), docetaxel], in data set [2], the D50 was 175,530 nm, the D90 is 435,810 nm and the mean particle size is 212,060 nm.

TAXOTERE®: the “maximum tolerated dose (MD)” value in [7] turned out to be 40 mg/kg.

Turning to paclitaxel, the COX-2 expression induction entry in data set [4] and in [9] was “paclitaxel-induced COX-2 expression” each time. The “pharmacokinetic profile (linearity)” value in data set [8] was “nonlinear pharmacokinetics”.
